Test results published in PubChem BioAssay (NCI).
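Compound exposure: 48 hours, 5 concentrations, 96-well plates. GI50: concentration for 50% inhibition of growth. At the TGI there is no net growth.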

How the values were obtained:
Assay in all cases: NCI tumour cell line growth inhibition, 48 h
[1] = tested on: OVCAR-3 ovarian
[2] = tested on: DMS 273 small cell lung
[3] = tested on: RPMI-8226 leukemia
[4] = tested on: SNB-75 CNS
[5] = tested on: OVCAR-5 ovarian
[6] = tested on: HT29 colon
[7] = tested on: DLD-1 colon
[8] = tested on: CCRF-CEM leukemia
[9] = tested on: SF-539 CNS
[10] = tested on: SNB-19 CNS
[11] = tested on: RXF 393 renal

Row | SMILES | TGI [1] [µM] | TGI [2] [µM] | TGI [3] [µM] | TGI [4] [µM] | TGI [5] [µM] | TGI [6] [µM] | TGI [7] [µM] | TGI [8] [µM] | TGI [9] [µM] | TGI [10] [µM] | TGI [11] [µM] | GI50 [1] [µM] | GI50 [4] [µM] | GI50 [5] [µM] | GI50 [6] [µM] | GI50 [10] [µM] | GI50 [3] [µM] | GI50 [11] [µM] | GI50 [8] [µM] | GI50 [9] [µM]
1 | CCCN(CCC)c1c([N+](=O)[O-])cc(C(=O)N(CCO)CCO)cc1[N+](=O)[O-] | > 100 | > 100 | > 100 | > 100 | > 100 | > 100 | > 100 | > 100 | > 100 | – | – | – | – | – | – | – | – | – | – | –
2 | COc1ccc(C(=O)N/N=C/c2c(C)n(C)n(-c3ccccc3)c2=O)cc1 | > 100 | > 100 | > 100 | > 100 | – | > 100 | > 100 | > 100 | > 100 | > 100 | > 100 | – | – | – | – | – | – | – | – | –
3 | O=C(OC/C=C1C=C(OC(=O)c2ccccc2)/C(=N/N(C(=O)c2ccccc2)c2ccccc2)O\1)c1ccccc1 | 21.5 | 24.1 | 7.24 | 37.9 | 29.5 | 41.5 | 10.6 | 2.1 | – | 23 | 5.58 | 8.35 | 18.5 | 15.9 | 19.8 | – | – | – | – | –
4 | COC(=O)/C=C(\S/C=C(/c1ccccc1)N1CCn2c(C(=O)c3ccccc3)c(C(=O)OC)c(C(=O)OC)c21)C(=O)OC | 2.87 | – | 7.49 | > 10 | > 10 | > 10 | – | 4.2 | 3.74 | > 10 | 4.67 | – | – | – | – | – | – | – | – | –
5 | COc1ccc(C2C3CCCC(C3=O)C(c3ccc(OC)cc3)N2N=O)cc1 (stereo unspecified) | 20 | 43.6 | 47.8 | 62.4 | > 100 | 51.2 | > 100 | > 70.7 | – | > 91.2 | 41.1 | – | – | – | – | – | – | – | – | –
6 | CC(C)/C(=N\[N+](C)(C)C)c1ccccc1 | > 100 | – | > 100 | > 100 | > 100 | > 100 | – | > 100 | > 100 | > 100 | > 100 | – | – | – | – | – | – | – | – | –
7 | COc1c2c(cc3c1C1(O)Cc4ccc5c(c4C[N+]1(C)CC3)OCO5)OCO2 (stereo unspecified) | > 100 | – | > 100 | > 100 | > 100 | > 100 | – | > 100 | > 100 | > 100 | > 100 | – | – | – | – | – | – | – | – | –
8 | CCOC(=O)C(O)(C(=O)OCC)c1cc(C(C)(C)C)c(O)c(C(C)(C)C)c1 | > 100 | – | 91.3 | > 100 | > 100 | > 100 | – | > 100 | 87.8 | 74.6 | 77.1 | – | – | – | – | – | – | – | – | –
9 | CSc1c(CC(=O)Nc2ccc(Cl)cc2)n(Cc2ccccc2)c2ccccc12 | > 100 | – | > 100 | 33.1 | > 100 | > 100 | – | > 100 | 9.6 | > 100 | 30.1 | – | – | – | – | – | – | – | – | –
10 | O=[N+]([O-])/C(C(Cl)=C(Cl)Cl)=C(\N1CCCCC1)n1nnc2ccccc21 | 32.6 | – | 38.6 | > 65.5 | 36.9 | 39.3 | – | 14.5 | 33.6 | 40.3 | 43.6 | – | – | – | – | – | – | – | – | –
11 | O=C(NNS(=O)(=O)c1ccccc1)c1cccnc1 | > 100 | – | > 100 | > 100 | > 100 | > 100 | – | > 100 | > 100 | > 100 | > 100 | – | – | – | – | – | – | – | – | –
12 | CCn1c2ccccc2c2ccc(C3C(C(=O)OC)=C(C)NC(C)=C3C(=O)OC)cc21 | > 100 | – | 80.8 | > 100 | > 100 | > 100 | – | > 100 | > 100 | > 100 | 49.4 | – | – | – | – | – | – | – | – | –
13 | CC(CN(C)C)C(=O)c1ccccc1 (stereo unspecified) | 97.8 | > 100 | 19.8 | > 100 | 96.1 | 41.3 | 32.6 | 27.2 | > 100 | > 100 | > 54.2 | – | – | – | – | – | – | – | – | –
14 | Cc1ccc(O)c(C2=CC(c3cccc(Br)c3)SC(N)=N2)c1 (stereo unspecified) | > 100 | – | 49.8 | 61.3 | 92.5 | > 100 | – | 81.7 | 50.3 | 32.4 | 47.1 | – | – | – | – | – | – | – | – | –
15 | CC(=O)C(=[N+]=[N-])C(=O)N(C)CCC#N | > 10 | – | > 10 | 3.39 | > 10 | > 10 | – | > 10 | > 10 | > 10 | > 10 | – | – | – | – | – | – | – | – | –
16 | ClCc1cccc(CSc2ncnc3c2ncn3Cc2cccc(CCl)c2)c1 | 3.31 | – | 4.86 | 2.93 | 3.99 | 3.74 | – | 6.95 | 4.31 | 3.46 | 2.4 | 1.86 | 1.51 | 1.84 | 2.04 | 1.85 | 1.89 | 1.05 | 1.6 | 1.58
17 | CC1CN=C(c2cccc(-c3nc(-c4cccc(C5=NCC(C)N5)c4)nc(N(C)C)n3)c2)N1 (stereo unspecified) | 4.19 | – | 6.87 | 5.13 | 10.2 | 5.48 | – | 3.45 | 1.66 | 5.27 | 11.8 | – | – | – | – | – | – | – | – | –
18 | CO[C@@H]1C[C@H](OC(N)=O)[C@@H]2C=C[C@@H]3/C=C(C)/C=C/[C@@H](C)[C@H](/C(C)=C/[C@@H](C)NC(C)=O)OC(=O)/C=C/C=C(C)\C=C\[C@]3(C)[C@@H]2C1 | 0.251 | – | 0.353 | 0.0826 | 3.63 | 0.278 | – | 7.59 | 0.0846 | 10.2 | 0.455 | – | – | – | – | – | – | – | – | –
19 | C=CCc1cc(C(Cc2ccccc2)NC(C)C)cc(OCc2ccccc2)c1OCc1ccccc1 (stereo unspecified) | 30.4 | – | 30.9 | 26.2 | 33.2 | 28.6 | – | 33.5 | 29 | 28.8 | 30.4 | – | – | – | – | – | – | – | – | –
20 | OC12c3ccccc3C3CCC4(OCCO4)C3C1c1ccccc12 (stereo unspecified) | > 100 | > 100 | > 100 | > 100 | > 100 | > 100 | > 100 | > 100 | > 100 | > 100 | > 100 | – | – | – | – | – | – | – | – | –
21 | CC(C)(C)OC(=O)CN1CCN(CC(=O)N2CCN(C(=O)OCc3ccccc3)CC2)CCN(CC(=O)OC(C)(C)C)CCN(CC(=O)N2CCN(C(=O)OCc3ccccc3)CC2)CC1 | 13.1 | – | 2.91 | 4.75 | 25.8 | 1.37 | – | 3.51 | 6.85 | 14.6 | 17 | – | – | – | – | – | – | – | – | –
22 | O=S(=O)(/N=C(\NO)Nc1ccc(Cl)cc1)c1ccccc1 | 8.89 | – | 56.8 | 19.4 | 56.6 | 41.3 | – | > 100 | > 30.6 | > 89.3 | 40 | – | – | – | – | – | – | – | – | –
23 | COc1ccc2c3c1OC1C34CCN(C)C(C2)C4=CC(I)C1(OC)OC (stereo unspecified) | 18.5 | – | 14.2 | 34.5 | 38.4 | 22 | – | 5.87 | 40.6 | 30.5 | 23.1 | – | – | – | – | – | – | – | – | –
24 | CCN(CC)CCCNc1[nH]ncc2c(C)c3nc4ccc(OC)cc4c3cc12 | 2.99 | – | 2.69 | 2.1 | 6.66 | 6.04 | – | 2 | 1.16 | 1.21 | 3.37 | – | – | – | – | – | – | – | – | –
25 | O=C(Nc1nnc(-c2c(Cl)c(Cl)c(Cl)c(Cl)c2-c2nc3cc(C(=O)c4ccccc4)ccc3[nH]2)o1)c1ccc(Cl)cc1 | 54.1 | – | > 100 | > 100 | > 100 | > 100 | – | > 100 | > 100 | > 100 | > 100 | – | – | – | – | – | – | – | – | –
26 | COc1ccc2nc3n(c2c1)C(=O)c1ccccc1-3 | > 100 | – | > 100 | > 100 | > 100 | > 100 | – | > 100 | > 100 | > 100 | > 100 | – | – | – | – | – | – | – | – | –
27 | COc1nc2c(c(=O)n1C)N=C(c1ccc(Cl)cc1)CC(c1ccccc1)N2 (stereo unspecified) | > 100 | – | 54 | 46.7 | 78.7 | 47.4 | – | 69.3 | 31.5 | > 100 | 55 | – | – | – | – | – | – | – | – | –
28 | COP(=O)(OC)/C(=C/c1cn(C(c2ccccc2)(c2ccccc2)c2ccccc2)cn1)NC=O | 30.2 | – | > 100 | 23.3 | 38.2 | 33.8 | – | > 100 | 28.3 | > 100 | 35.1 | – | – | – | – | – | – | – | – | –
29 | COc1cc(NC=C2C(=O)OC(C)(C)OC2=O)c(OC)c(C)c1OC | > 100 | – | > 100 | > 100 | > 100 | > 100 | – | > 100 | > 100 | > 100 | > 100 | – | – | – | – | – | – | – | – | –
